Reference: US9938261B2, “Heterocyclic compounds and methods of use thereof” (AMBIT BIOSCIENCES CORPORATION, priority 2011, dated 2018)
Like-named read-outs stand apart in the source and are kept apart here.

Columns and labels:
M-NFS-60 cells = experiment: M-NFS-60 cell proliferation assay (Alamar Blue); type: cell-based, mouse; settings: Mus musculus, read-out: CSF1R M-NFS-60 CTB:IC50
Method in brief: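 Mouse M-NFS-60 cells growing on 20 ng/mL M-CSF in RPMI/10% FBS were exposed to compounds (9 half-log concentrations, 0.5% DMSO) for 72 h at 37 °C. Viability read by Alamar Blue fluorescence (ex 560/em 590 nm, 3 h). IC50 = 50% proliferation inhibition versus control, mean of duplicates.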

FLT3 = molecular target: T1, FLT3 (Homo sapiens, UniProt P36888); experiment: Competition binding assay, FLT3 Kd
T1 construct: made in house
T1 sequence (P36888 27-993): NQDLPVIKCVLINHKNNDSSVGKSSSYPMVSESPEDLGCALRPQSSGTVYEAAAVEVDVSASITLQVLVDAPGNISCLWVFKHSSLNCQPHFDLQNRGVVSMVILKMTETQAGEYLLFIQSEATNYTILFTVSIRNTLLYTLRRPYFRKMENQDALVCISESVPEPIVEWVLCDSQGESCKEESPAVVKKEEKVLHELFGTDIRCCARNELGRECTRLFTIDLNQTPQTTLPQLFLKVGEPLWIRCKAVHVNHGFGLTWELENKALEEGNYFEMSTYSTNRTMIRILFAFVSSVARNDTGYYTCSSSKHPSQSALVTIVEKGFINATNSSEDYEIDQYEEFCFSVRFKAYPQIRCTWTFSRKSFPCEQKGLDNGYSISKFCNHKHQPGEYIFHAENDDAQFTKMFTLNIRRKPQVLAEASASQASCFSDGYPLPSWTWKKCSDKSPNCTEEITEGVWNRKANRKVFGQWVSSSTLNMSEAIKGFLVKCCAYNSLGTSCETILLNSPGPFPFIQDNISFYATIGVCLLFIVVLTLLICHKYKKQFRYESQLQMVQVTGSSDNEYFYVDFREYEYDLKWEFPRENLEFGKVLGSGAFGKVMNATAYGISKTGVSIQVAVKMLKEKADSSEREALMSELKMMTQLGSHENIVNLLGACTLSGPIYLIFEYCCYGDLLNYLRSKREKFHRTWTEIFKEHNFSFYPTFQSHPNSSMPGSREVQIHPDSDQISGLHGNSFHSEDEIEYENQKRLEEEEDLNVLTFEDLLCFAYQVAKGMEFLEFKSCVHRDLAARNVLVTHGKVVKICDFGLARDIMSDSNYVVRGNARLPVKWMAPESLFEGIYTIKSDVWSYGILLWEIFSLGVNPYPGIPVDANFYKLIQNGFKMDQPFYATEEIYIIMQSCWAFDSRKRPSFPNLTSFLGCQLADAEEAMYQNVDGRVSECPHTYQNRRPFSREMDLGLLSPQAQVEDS
Method in brief: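 Kinases as T7-phage fusions or HEK-293-expressed DNA-tagged constructs competed against immobilized biotinylated ligand on streptavidin beads, 1 h at room temperature in binding buffer. Bound kinase eluted and quantified by qPCR; Kd from eleven-point threefold dilution series.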

[1] = 72 hours incubation, M-CSF 20 ng/mL

Structure (SMILES)	Kd (FLT3; competition binding) [nM]	Kd (FLT3) [nM]	IC50 (M-NFS-60 cells; M-NFS-60 cell proliferation) [nM]	IC50 (M-NFS-60 cells; [1]) [nM]
N#CCOc1ccc2c(c1)ncn2Cc1ccc2nc(N[C@@H]3CCCC[C@H]3O)sc2c1 [Example 196, 2-((1-((2-(((1R,2R)-2-hydroxycyclohexyl)amino)benzo[d]thiazol-6-yl)methyl)-1H-benzo[d]imidazol-5-yl)oxy)acetonitrile]	200 to 1000		50 to 400	
CON=C(C)c1ccn2c(Cc3ccc4nc(N[C@@H]5CCCC[C@H]5O)sc4c3)cnc2c1 [Example 204, 1-(3-((2-(((1R,2R)-2-hydroxycyclohexyl)amino)benzo[d]thiazol-6-yl)methyl)imidazo[1,2-a]pyridin-7-yl)ethanone O-methyl oxime]	1000 to 5000		50 to 400	
CS(=O)(=O)c1cnc2c(c1)ncn2Cc1ccc2nc(N[C@@H]3CCCC[C@H]3O)sc2c1 [Example 74, (1R,2R)-2-((6-((6-(methylsulfonyl)-3H-imidazo[4,5-b]pyridin-3-yl)methyl)benzo[d]thiazol-2-yl)amino)cyclohexanol]		≤ 200		50 to 400
COc1cc2ncn(Cc3ccc4nc(N[C@@H]5CCCC[C@H]5O)oc4c3)c2cc1OC [Example 34, (1R,2R)-2-((6-((5,6-dimethoxy-1H-benzo[d]imidazol-1-yl)methyl)benzo[d]oxazol-2-yl)amino)cyclohexanol]		≤ 200		50 to 400
OC[C@@H](Nc1nc2ccc(Cn3cnc4cccnc43)cc2s1)C1CCCCC1 [Example 63, (S)-2-((6-((3H-imidazo[4,5-b]pyridin-3-yl)methyl)benzo[d]thiazol-2-yl)amino)-2-cyclohexylethanol]		≤ 200		50 to 400
O[C@@H]1CCCC[C@H]1Nc1nc2ccc(Cn3cnc4cc(N5CCOCC5)cnc43)cc2s1 [Example 97, (1R,2R)-2-((6-((6-morpholino-3H-imidazo[4,5-b]pyridin-3-yl)methyl)benzo[d]thiazol-2-yl)amino)cyclohexanol]		200 to 1000		≤ 50
O[C@@H]1Cc2ccccc2[C@H]1Nc1nc2ccc(Cn3cnc4cccnc43)cc2s1 [Example 46, (1R,2R)-1-((6-((3H-imidazo[4,5-b]pyridin-3-yl)methyl)benzo[d]thiazol-2-yl)amino)-2,3-dihydro-1H-inden-2-ol]		1000 to 5000		50 to 400
ON=C1CCCC[C@H]1Nc1nc2ccc(Cn3cnc4cccnc43)cc2s1 [Example 58, (R)-2-((6-((3H-imidazo[4,5-b]pyridin-3-yl)methyl)benzo[d]thiazol-2-yl)amino)cyclohexanone oxime]		1000 to 5000		50 to 400

Continued, in another order:

Kd (FLT3; competition binding) [nM]	Kd (FLT3) [nM]	Structure (SMILES)	IC50 (M-NFS-60 cells; M-NFS-60 cell proliferation) [nM]	IC50 (M-NFS-60 cells; [1]) [nM]
	1000 to 5000	O[C@@H]1CCCC[C@H]1Nc1nc2ccc(Cn3cnc4cc(Cl)cnc43)cc2s1 [Example 55, (1R,2R)-2-((6-((6-chloro-3H-imidazo[4,5-b]pyridin-3-yl)methyl)benzo[d]thiazol-2-yl)amino)cyclohexanol]		≤ 50
	1000 to 5000	COc1cc2ncn(Cc3ccc4nc(N[C@@H]5CCCC[C@H]5O)sc4c3)c2cc1C#N [Example 53, 1-((2-(((1R,2R)-2-hydroxycyclohexyl)amino)benzo[d]thiazol-6-yl)methyl)-5-methoxy-1H-benzo[d]imidazole-6-carbonitrile]		≤ 50
	200 to 1000	O[C@@H]1CCCC[C@H]1Nc1nc2ccc(Cn3cnc4cc(C5CC5)cnc43)cc2s1 [Example 45, (1R,2R)-2-((6-((6-cyclopropyl-3H-imidazo[4,5-b]pyridin-3-yl)methyl)benzo[d]thiazol-2-yl)amino)cyclohexanol]		≤ 50
≤ 200		C=Cc1cc(F)c2c(c1)ncn2Cc1ccc2nc(N[C@@H]3CCCC[C@H]3O)sc2c1 [Example 207, (1R,2R)-2-((6-((7-fluoro-5-vinyl-1H-benzo[d]imidazol-1-yl)methyl)benzo[d]thiazol-2-yl)amino)cyclohexanol]	≤ 50	
	200 to 1000	COc1cc2ncn(Cc3ccc4nc(N[C@@H]5CCCC[C@H]5O)sc4c3)c2cc1Br [Example 47, (1R,2R)-2-((6-((6-bromo-5-methoxy-1H-benzo[d]imidazol-1-yl)methyl)benzo[d]thiazol-2-yl)amino)cyclohexanol]		≤ 50
